Article PMC8060220, “Comparative study of hyperpure chlorine dioxide with two other irrigants regarding the viability of periodontal ligament stem cells” (Clinical Oral Investigations, 2020)
Marks after values point to notes of the source that are not given here.

Tests used:
[1] = system: CD90; experiment: Immunocytochemistry of stem cell marker CD90; assay type: cell-based, human; conditions: 48 h
Description: (§1) PDLSC cultures grown in 8 chamber slides (Nunc Lab-Tek) were treated with the antiseptic agents similar to the viability studies. After 48 h, treated and untreated cell cultures were fixed in 4% PFA in PBS for 20 min at room temperature (RT). To block non-specific binding, 5% goat serum in PBS was applied for 1 h at RT. Then cell cultures were incubated with the primary antibodies diluted 1:100 with 2.5% goat serum in PBS overnight at 4 °C. The applied primary antibodies were the following: anti-STRO-1 antibody (type mouse IgM)—a generous gift from Prof. Richard Oreffo (University of Southampton, UK); anti-CD90 (Thy-1; type mouse IgG) and the anti-CD105 (endoglin; type mouse IgM) antibodies purchased from Calbiochem and Santa Cruz Biotechnology, respectively. Goat anti-mouse IgM and IgG type secondary antibodies conjugated with Alexa Fluor 488 (Molecular Probes) were diluted with 2.5% goat serum in PBS in 1:2000 and 1:1000 respectively. The incubation time was 60 min at RT. Finally, the walls of the chambers were removed and the slides were mounted with ProLong Gold antifade reagent with DAPI (Molecular Probes). Immunocytochemically labeled cell cultures were investigated under a fluorescence microscope (Nikon Eclipse E600), the photos were taken by a Retiga 2000R digital CCD camera (QImaging), and analyzed by the Image Pro software (Media Cybernetics). Free macros for automated fluorescence analysis of image processing software FIJI/ImageJ were applied to evaluate immunostaining of stem cell markers. Each test point represents 3 × 3 reading of the samples.

[2] = system: bacteria; parameters: method as in PMID 24060558, PMID 23529300; conditions: direct antibacterial and biofilm-dissolving effects; cited from earlier work
[3] = system: PDLSCs; experiment: WST-1 test, concentration-response study; assay type: cell-based, human; conditions: 48-h incubation, 50% viable cells
Description: To evaluate the concentration-dependent effects of the 3 antiseptic agents (H2O2, CHX, and ClO2), 9 different dilutions of each agent were prepared with growth medium (from 3.91 × 10^−6 to 10^−3 M, by 1:2 dilution in each step). As ClO2 is photosensitive and volatile, its dilution series were made in dark Eppendorf tubes which were opened only for the inevitably required time. After a 48-h-long incubation, cell viability was assessed by WST-1 test and impedimetric measurement, respectively (see below). The […] (IC50) values corresponding to the 50% viable cells or 0.5 normalized CI were determined from the concentration-effect curves in the case of the two methods, respectively.
(§2) This assay is dedicated to measuring the viability of PDLSCs. In 96-well culture plates, 10,000 PDLSCs were seeded. After 24 h, samples were treated with the irrigative compounds, and final concentrations were H2O2 0.3%, CHX 0.02%, and ClO2 0.0025% and 0.00025% solutions in 4-4 parallel wells. After 10 min, all the irrigative agents were removed and the samples were washed three times with normal growth medium, simulating the diluting effect of saliva in the oral cavity during the periodontal treatments. Forty-eight hours after the treatments, the cell viability was measured by the cell proliferation reagent containing water-soluble tetrazolium salt, WST-1 [2-(4-Iodophenyl)-3-(4-nitrophenyl)-5-(2,4-disulfophenyl)-2H-tetrazolium] (Roche). This assay determines mitochondrial dehydrogenase enzyme activity resulting water-soluble cleavage product. The WST-1 reagent was used at 1:20 dilution and incubation time was 2 h at 37 °C. Absorbance was measured at 450 nm with a reference wavelength of 655 nm by a microplate reader (BIO-RAD Model 3550). Background control values were determined in wells seeded with no cells. Each value represents the average of minimum 3 parallel measurements.

[4] = system: CD105; experiment: Immunocytochemistry of stem cell marker CD105; assay type: cell-based, human; conditions: 48 h
Description: as §1

[5] = system: equine fibroblasts; conditions: equine fibroblasts; cited from earlier work
[6] = system: STRO-1; experiment: Immunocytochemistry of stem cell marker STRO-1; assay type: cell-based, human; conditions: 48 h
Description: as §1

[7] = system: human gingival fibroblasts; parameters: method as in PMID 1962413; conditions: cited from earlier work
[8] = system: PDLSC cultures; experiment: Morphological study, phase-contrast microscopy; assay type: cell-based, human; conditions: 48 h after treatment; 0.3% H2O2, 0.02% CHX, 0.0025% or 0.00025% ClO2
Source text: Cellular morphology was observed under an inverted phase-contrast microscope (Nikon TMS). Photomicrographs were taken applying a high-performance CCD camera (COHU) and the Scion image software.

[9] = parameters: method as in ref S1; conditions: ref S1, cited from earlier work
[10] = system: Escherichia coli; parameters: method as in ref 1 (supplement); conditions: 1 µm diameter cylindrical bacterium; c0 = 300 mg/L (4.45 mM); formula (C), pig bladder parameters; ref 1 (supplement); cited from earlier work
[11] = system: PDLSCs; experiment: WST-1 viability assay, 10 min treatment; assay type: cell-based, human; conditions: P3 and P7, 48 h
Description: as §2

[12] = P3, 0.02% CHX, 0.0025% (1/1) ClO2
[13] = P7, 0.02% CHX, 0.0025% (1/1) ClO2

[O][Cl+][O-] [ClO2, chlorine dioxide]
CD90 Fluo. int. [%] Control = 100% ([1]; P3, 0.00025% (1/10) ClO2): 159.23** % | CD90 Fluo. int. [%] Control = 100% [1, 12]: 83.07% | CD90 Fluo. int. [%] Control = 100% ([1]; P7, 0.00025% (1/10) ClO2): 54.92*** % | CD90 Fluo. int. [%] Control = 100% [1, 13]: 97.74% | times lower concentration of ClO2 needed to evoke the same or even stronger effect than that of CHX [2]: approximately 10 times | IC50 [3]: 638 µM | CD105 Fluo. int. [%] Control = 100% ([4]; P3, 0.00025% (1/10) ClO2): 127.80* % | CD105 Fluo. int. [%] Control = 100% [4, 12]: 213.90*** % | CD105 Fluo. int. [%] Control = 100% ([4]; P7, 0.00025% (1/10) ClO2): 15.74*** % | CD105 Fluo. int. [%] Control = 100% [4, 13]: 55.46*** % | toxicity compared with CHX [5]: less toxic to equine fibroblasts than CHX | STRO-1 Fluo. int. [%] Control = 100% ([6]; P3, 0.00025% (1/10) ClO2): 145.78** % | STRO-1 Fluo. int. [%] Control = 100% [6, 12]: 216.52*** % | STRO-1 Fluo. int. [%] Control = 100% ([6]; P7, 0.00025% (1/10) ClO2): 114.69% | STRO-1 Fluo. int. [%] Control = 100% [6, 13]: 120.43* % | LD50 ([7]; human gingival fibroblasts): 0.16 mM | apoptotic responses ([7]; low concentrations of ClO2): did not induce apoptotic responses | cell morphology and cell number under phase-contrast microscope [8]: did not provoke morphological changes | diffusion coefficient D(pig bladder) ([9]; cellular pig bladder tissue): 1.8×10^–6 cm^2s^–1 | diffusion coefficient D(gelatine) ([9]; unstructured gelatine gel medium): 2.4×10^–6 cm^2s^–1 | killing time (TKILL) [10]: 4.4 ms | viability of PDLSC cultures, WST-1 ([11]; 0.3% H2O2, 0.02% CHX, higher ClO2 concentration (0.0025%)): no effect | viability of PDLSC cultures, WST-1 ([11]; lower ClO2 concentration (0.00025%)): unequivocally neutral
